Test results taken from patent publication US9163018B2, “Method of treatment of age-related macular degeneration (AMD)” (Prana Biotechnology Limited, priority 2006, dated 2015).

Experiments:
Aβ deposits = settings: 9 weeks; for Tg Mice % difference from control in Amyloid plaque abundance / Tg Mice % difference from control in insoluble brain amyloid burden / Tg Mice % difference from control in soluble brain amyloid burden: daily oral gavage 30 mg/kg, 13-14 months old transgenic mice
[1] = Mice plasma concentration after oral dose; format: in vivo; settings: for Mice plasma concentration: 30 min to 4 h after single or repeat oral dose of 30 mg/kg; for Mice plasma concentration at 10 mg/kg: oral dose 10 mg/kg
[2] = test system: Abeta in extract of post-mortem human AD brain tissue; assay: BAS: human brain amyloid solubilization assay; format: biochemical; settings: max effect across the concentration range, referenced to baseline PBS
Procedure, shortened: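 Plaque-bearing post-mortem AD cortex homogenised in ice-cold PBS pH 7.4; soluble Aβ in 100,000×g supernatant, insoluble Aβ from resuspended pellet. Fractions run on Tris-Tricine SDS-PAGE, immunoblotted with W02, densitometry against synthetic Aβ40 standards.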

[3] = test system: primary cortical neuronal cultured cells; assay: Test compound cytotoxicity, MTS assay, primary cortical neuronal cultures; format: cell-based, mouse; settings: for Cytotox (% viable) Neuronal cells at 1 μM: 1 μM test compound; for Cytotox (% viable) Neuronal cells at 10 μM: 10 μM test compound
Procedure, shortened: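 Primary cortical neurons were cultured five days in Neurobasal/B27, then exposed on day six to compounds (from 2.5 mM DMSO stocks) in medium minus antioxidants, in triplicate for 4 days at 37° C. Viability was measured by MTS, 2 h at 37° C, absorbance at 560 nm.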

[4] = Toxicity, visual observations in mice; settings: duration and visual observations
Aβ 1-42 = biological target: T1, Aβ 1-42 (Homo sapiens, UniProt P05067); assay: Fluorometric H2O2 assay (inhibition of Abeta H2O2 production); format: biochemical; settings: concentration required to inhibit 50% of Abeta H2O2 production; read-out: H2O2 IC50
T1 construct: The reaction solutions contained Aβ 1-42 at concentrations
Procedure, shortened: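 Reactions in PBS pH 7.4 at 37 C for 60 min, containing Aβ, copper and test compound. H2O2 output read as fluorescence of HRP-coupled deacetylated DCF. Fluorescence converted to H2O2 concentration via H2O2 standards.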

[5] = test system: M17 human neuroblastoma cells; assay: Cytotoxicity, M17 human neuroblastoma cells; format: cell-based; settings: for Cytotox (% viable) M17 cells at 1 μM: 1 μM test compound; for Cytotox (% viable) M17 cells at 10 μM: 10 μM test compound
Experimental: Assay 3. MTS Assay for Cell Viability
Cell viability is determined using the MTS assay. Culture medium is replaced with fresh neurobasal medium plus B27 supplements minus antioxidants. 1/10th volume MTS solution (Cell Titre 96 Aqueous One, Promega Corporation) and incubated at 37° C., 2 hrs. 200 microliter aliquots are measured with a spectrophotometer at 560 nm.

[6] = biological target: T2, Abeta:Zn (25:50 μM) Synthetic Aggregations (Homo sapiens, UniProt P05067); assay: Disaggregation of Abeta:Zn synthetic aggregates (ThT fluorescence); format: biochemical; settings: for Disaggregation % Aggregate reduction at 5 μM: 5 μM test compound; for EC50: Abeta:Zn 25:50 μM aggregates
T2 construct: PB Compound Mediated Dissolution of Aggregated Abeta 1-42; purchased Keck Laboratory, Yale University School of Medicine
Procedure, shortened: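 ThT signal (excitation 450 nm, emission 480 nm) measured after compounds at final 1, 5, 10, 25 and 50 μM acted 2 h at 37 degrees on preformed aggregates. Those aggregates came from 24 h rotating incubation of 25 μM Abeta1-42, 50 μM ZnCl2 and 50 μM ThT in PBS pH 6.6.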

[7] = test system: dityrosine oligomerization; assay: CuTy: inhibition of dityrosine oligomerization; format: biochemical; settings: referenced to in-house standard (set as 100% inhibition)

T2 sequence (P05067 672-713 limits assumed): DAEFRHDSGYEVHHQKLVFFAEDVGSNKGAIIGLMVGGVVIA
T1 sequence (P05067 672-713 limits assumed): as above

CCNCc1ccc2c(Cl)cc(Cl)c(O)c2n1.Cl [PB 1051]
Tg Mice % difference from control in Amyloid plaque abundance (Aβ deposits): −39% | Tg Mice % difference from control in insoluble brain amyloid burden (Aβ deposits): −21% | Tg Mice % difference from control in soluble brain amyloid burden (Aβ deposits): slight increase | Mice plasma concentration [1]: Up to 403 ng/ mL ng/mL | BAS max effect [2]: 270% | Cytotox (% viable) Neuronal cells at 1 μM [3]: 87% | Cytotox (% viable) Neuronal cells at 10 μM [3]: 56% | Toxicity at 30 mg/kg [4]: 10 days, none | IC50 (Aβ 1-42): 0.38 µM | Cytotox (% viable) M17 cells at 1 μM [5]: 78.3% | Cytotox (% viable) M17 cells at 10 μM [5]: 44% | Disaggregation % Aggregate reduction at 5 μM [6]: 22.3% | EC50 [6]: > 20 µM

Oc1c(Cl)cc(Cl)c2ccc(-c3ccccn3)nc12 [PB 1052]
Tg Mice % difference from control in Amyloid plaque abundance (Aβ deposits): Decrease insol, Decrease sol, Decrease plaque | Tg Mice % difference from control in insoluble brain amyloid burden (Aβ deposits): Decrease insol, Decrease sol, Decrease plaque | Tg Mice % difference from control in soluble brain amyloid burden (Aβ deposits): Decrease insol, Decrease sol, Decrease plaque | BAS max effect [2]: 212% | Cytotox (% viable) Neuronal cells at 1 μM [3]: 55% | Cytotox (% viable) Neuronal cells at 10 μM [3]: 31% | IC50 (Aβ 1-42): 0.64 µM | Disaggregation % Aggregate reduction at 5 μM [6]: 62.8% | EC50 [6]: 3.3 µM

Oc1c(C2CC2)ncc2cccnc12 [PB 1073]
Mice plasma concentration [1]: Up to 350 ng/ mL in mice ng/mL | Cytotox (% viable) Neuronal cells at 1 μM [3]: 100% | Cytotox (% viable) Neuronal cells at 10 μM [3]: 98% | Toxicity at 30 mg/kg [4]: 6 days, none | IC50 (Aβ 1-42): 0.52 µM | Disaggregation % Aggregate reduction at 5 μM [6]: 50% | EC50 [6]: 4.7 µM

O=c1c2c(Cl)cc(Cl)c(O)c2ncn1CCN1CCCC1 [PB 1075]
Tg Mice % difference from control in Amyloid plaque abundance (Aβ deposits): −23% | Tg Mice % difference from control in insoluble brain amyloid burden (Aβ deposits): Increase | Tg Mice % difference from control in soluble brain amyloid burden (Aβ deposits): decrease | Mice plasma concentration [1]: Up to 520 ng/ mL in mice ng/mL | Cytotox (% viable) Neuronal cells at 1 μM [3]: 104% | Cytotox (% viable) Neuronal cells at 10 μM [3]: 91% | Toxicity at 30 mg/kg [4]: 14 days, 1 of 4 death | Cytotox (% viable) M17 cells at 1 μM [5]: 103.6% | Cytotox (% viable) M17 cells at 10 μM [5]: 101.3% | Disaggregation % Aggregate reduction at 5 μM [6]: 0% | EC50 [6]: > 20 µM

O=c1c2c(Cl)cc(I)c(O)c2ncn1CC1CC1 [PB 1140]
Mice plasma concentration at 10 mg/kg [1]: At 10 mg/kg: Up to 2315 ng/ ml ng/mL | Toxicity at 10 mg/kg [4]: At 10 mg/kg 10 days, none | IC50 (Aβ 1-42): 0.36 µM | Cytotox (% viable) M17 cells at 1 μM [5]: 92.4% | Cytotox (% viable) M17 cells at 10 μM [5]: 98.2% | Disaggregation % Aggregate reduction at 5 μM [6]: 64% | EC50 [6]: 3.5 µM

CCCc1cnc2c(O)c(I)ccn2c1=O [PB 1151]
Tg Mice Amyloid plaque abundance at 3 mg/kg (Aβ deposits; daily oral gavage 3 mg/kg): No change | Tg Mice soluble brain amyloid burden at 3 mg/kg (Aβ deposits; daily oral gavage 3 mg/kg): No change | Tg Mice % difference in insoluble brain amyloid burden at 3 mg/kg (Aβ deposits; daily oral gavage 3 mg/kg, ex-outlier): −24% | Mice plasma concentration [1]: Up to 11742 ng/ ml ng/mL | IC50 (Aβ 1-42): 0.33 µM | Cytotox (% viable) M17 cells at 1 μM [5]: 80.8% | Cytotox (% viable) M17 cells at 10 μM [5]: 47.6% | Disaggregation % Aggregate reduction at 5 μM [6]: 57% | EC50 [6]: 5.6 µM

CC(C)Cn1cnc2c(O)c(I)ccc2c1=O [PB 1152]
Mice plasma concentration at 10 mg/kg [1]: At 10 mg/kg: Up to 309 ng/ml ng/mL | Toxicity at 10 mg/kg [4]: At 10 mg/kg 10 days, none | IC50 (Aβ 1-42): 0.31 µM | Cytotox (% viable) M17 cells at 1 μM [5]: 95.7% | Cytotox (% viable) M17 cells at 10 μM [5]: 71.2% | Disaggregation % Aggregate reduction at 5 μM [6]: 56% | EC50 [6]: > 20 µM

CCCn1cnc2c(O)c(I)ccc2c1=S [PB 1165]
Tg Mice % difference from control in Amyloid plaque abundance (Aβ deposits): Decrease | Tg Mice % difference from control in insoluble brain amyloid burden (Aβ deposits): No change | Tg Mice % difference from control in soluble brain amyloid burden (Aβ deposits): No change | Mice plasma concentration [1]: Up tp 1593 ng/ ml ng/mL | Toxicity at 30 mg/kg [4]: 10 days, none | IC50 (Aβ 1-42): 0.89 µM | Cytotox (% viable) M17 cells at 1 μM [5]: 96.7% | Cytotox (% viable) M17 cells at 10 μM [5]: 107.1% | Disaggregation % Aggregate reduction at 5 μM [6]: 52% | EC50 [6]: 4.7 µM

CCc1c(O)c(=O)ccn1CC.Cl [PB 1270]
CuTy % inhibition of dityrosine oligomerization [7]: CuTy: 80% inhibition | IC50 (Aβ 1-42): > 10 µM

CC(C)Cn1c(CN(C)C)nc2c(O)c(Cl)cc(Cl)c2c1=O.Cl [PB 1271]
CuTy % inhibition of dityrosine oligomerization [7]: CuTy: 50% inhibition | IC50 (Aβ 1-42): 0.17 µM | Cytotox (% viable) M17 cells at 1 μM [5]: 104.4% | Cytotox (% viable) M17 cells at 10 μM [5]: 61.5%
